Test results published in patent US11629171B2, “Beta-hairpin peptidomimetics” (POLYPHOR AG, priority 2017, dated 2023).
Values after ≈ are worked out from the molar mass of the structure shown. Where a SMILES comes first, the peptide text is derived from it. Bridges are numbered along the chain shown (N, C = ends). Roman numbers before positions name the chains, in order. [ ]: non-standard residue; d: D form. dThr(ol) = C[C@H](O)[C@@H](N)CO; Thr(ol) = C[C@@H](O)[C@H](N)CO; aThr = C[C@H](O)[C@H](N)C(=O)O; pGlu = O=C1CC[C@@H](C(=O)O)N1; Tle = CC(C)(C)[C@H](N)C(=O)O; Hiv = CC(C)[C@H](O)C(=O)O; dDab = NCC[C@@H](N)C(=O)O; hSer = N[C@@H](CCO)C(=O)O; Dab = NCC[C@H](N)C(=O)O; Dap = NC[C@H](N)C(=O)O

Columns and labels:
Assay type in all cases: cell-based
[1] = tested on: Acinetobacter baumannii 872842; conditions: 872842
Outline: (§1)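 MIC in μg/mL, read as absence of visible growth after 18-20 h incubation at 35° C, by standard CLSI microdilution. Peptides tested in two-fold serial dilution in cation-adjusted MH-II broth containing 0.002% (final) Polysorbate 80, against roughly 10^6 CFU/mL inocula.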

[2] = tested on: Acinetobacter baumannii DSM 30008; conditions: DSM 30008
Outline: as §1

[3] = tested on: Enterobacter cloacae 848840; conditions: 848840
Outline: as §1

[4] = tested on: Escherichia coli 926415; conditions: 926415
Outline: as §1

[5] = tested on: Escherichia coli ATCC 25922; conditions: ATCC 25922
Outline: as §1

[6] = tested on: Klebsiella pneumoniae 968733; conditions: 968733
Outline: as §1

[7] = tested on: Klebsiella pneumoniae SSI #3010; conditions: SSI #3010
Outline: as §1

[8] = tested on: Pseudomonas aeruginosa ATCC 27853; conditions: ATCC 27853
Outline: as §1

[9] = tested on: human red blood cells (hRBC); test: Hemolysis; conditions: red cells of human, 1 h, 200
Outline: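 Percent hemolysis relative to 2% Triton X-100 (100%) and PBS/10% water (0%), from blank-corrected OD540 of diluted supernatants. Peptides tested at 200 μg/mL against 20% (v/v) washed human erythrocytes, 1 h, 37° C, shaking at 300 rpm.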

Row | Compound | MIC [1] | Acinetobacter baumannii DSM 30008 MIC [2] | MIC [3] | MIC [4] | Escherichia coli ATCC 25922 MIC [5] | MIC [6] | Klebsiella pneumoniae SSI #3010 MIC [7] | Pseudomonas aeruginosa ATCC 27853 MIC [8] | Hemolysis at 200 μg/mL [9] | MIC [2] | MIC [5] | MIC [7] | MIC [8]
1 | CC[C@H](C)[C@@H]1NC(=O)[C@H](CO)NC(=O)[C@H](Cc2c[nH]c3ccccc23)NC(=O)[C@H](CO)NC(=O)[C@@H](CCN)NC(=O)[C@H](CCC(=O)N[C@@H](CCN)C(=O)N[C@H](C(=O)N[C@@H](CN)C(=O)N[C@H]2CCNC(=O)[C@H]([C@@H](C)O)NC(=O)[C@H](CCN)NC(=O)[C@H](CCN)NC(=O)[C@H](CC(C)C)NC(=O)[C@@H](CC(C)C)NC(=O)[C@H](CCN)NC2=O)[C@@H](C)O)NC(=O)[C@H](CN)NC(=O)[C@H](Cc2ccc(O)cc2)NC(=O)[C@@H](NC(=O)[C@@H](NC(C)=O)C(C)C)CCNC(=O)CC[C@@H](C(=O)N[C@@H](CO)C(N)=O)NC1=O [Ex. 322] (I: Ac-V[Dab]Y[Dap]E[dDab]SWSIES-NH2 / II: [Dab]T[Dap][Dab][Dab][dL]L[Dab][Dab]T; lactam I:2-I:11, II:4-II:C; amide I:5-II:N) | 0.0625 µg/mL (≈ 0.026 µM) | 0.0625 µg/mL | 0.0625 µg/mL (≈ 0.026 µM) | 0.125 µg/mL (≈ 0.052 µM) | 0.0625 µg/mL | 0.25 µg/mL (≈ 0.104 µM) | 0.125 µg/mL | 0.125 µg/mL | <1% | – | – | – | –
2 | CC(=O)N[C@H](C(=O)N[C@H]1CNC(=O)CC[C@@H](C(=O)N[C@@H](CO)C(N)=O)NC(=O)[C@H](C(C)C)NC(=O)[C@H](CO)NC(=O)[C@H](Cc2c[nH]c3ccccc23)NC(=O)[C@H](CO)NC(=O)[C@@H](CCN)NC(=O)[C@H](CCC(=O)N[C@@H](CCN)C(=O)N[C@H](C(=O)N[C@@H](CN)C(=O)N[C@H]2CCNC(=O)[C@H]([C@@H](C)O)NC(=O)[C@H](CCN)NC(=O)[C@H](CCN)NC(=O)[C@H](CC(C)C)NC(=O)[C@@H](CC(C)C)NC(=O)[C@H](CCN)NC2=O)[C@@H](C)O)NC(=O)[C@H](CCN)NC(=O)[C@H](Cc2ccc(O)cc2)NC1=O)C(C)C [Ex. 320] (I: Ac-V[Dap]Y[Dab]E[dDab]SWSVES-NH2 / II: [Dab]T[Dap][Dab][Dab][dL]L[Dab][Dab]T; lactam I:2-I:11, II:4-II:C; amide I:5-II:N) | 1 µg/mL (≈ 0.418 µM) | 0.5 µg/mL | 2 µg/mL (≈ 0.836 µM) | 4 µg/mL (≈ 1.67 µM) | 0.0625 µg/mL | 8 µg/mL (≈ 3.34 µM) | 0.125 µg/mL | 0.25 µg/mL | <1% | – | – | – | –
3 | CC(=O)N[C@H](C(=O)N[C@H]1CSSC[C@@H](C(=O)N[C@@H](CO)[C@H](C)O)NC(=O)[C@H](C(C)(C)C)NC(=O)[C@H](CO)NC(=O)[C@H](Cc2c[nH]c3ccccc23)NC(=O)[C@H](CO)NC(=O)[C@@H](CCN)NC(=O)[C@H](CCC(=O)N[C@@H](CCN)C(=O)N[C@H](C(=O)N[C@@H](CN)C(=O)N[C@H]2CCNC(=O)[C@H]([C@@H](C)O)NC(=O)[C@H](CCN)NC(=O)[C@H](CCN)NC(=O)[C@H](CC(C)C)NC(=O)[C@@H](CC(C)C)NC(=O)[C@H](CCN)NC2=O)[C@@H](C)O)NC(=O)[C@H](CN)NC(=O)[C@H](Cc2ccc(O)cc2)NC1=O)C(C)C [Ex. 124] (I: Ac-VCY[Dap]E[dDab]SWS[Tle]C[dThr(ol)] / II: [Dab]T[Dap][Dab][Dab][dL]L[Dab][Dab]T; disulfide I:2-I:11; amide I:5-II:N; lactam II:4-II:C) | 0.0625 µg/mL (≈ 0.026 µM) | – | 0.125 µg/mL (≈ 0.0521 µM) | 0.25 µg/mL (≈ 0.104 µM) | – | 0.25 µg/mL (≈ 0.104 µM) | – | – | 2% | 0.0625 µg/mL (≈ 0.026 µM) | 0.0625 µg/mL (≈ 0.026 µM) | 0.125 µg/mL (≈ 0.0521 µM) | 0.125 µg/mL (≈ 0.0521 µM)
4 | CC(=O)N[C@H](C(=O)N[C@H]1CSSC[C@@H](C(=O)N[C@H](C(N)=O)[C@@H](C)O)NC(=O)[C@H](C(C)(C)C)NC(=O)[C@H](CO)NC(=O)[C@H](Cc2c[nH]c3ccccc23)NC(=O)[C@H](CO)NC(=O)[C@@H](CCN)NC(=O)[C@H](CCC(=O)N[C@@H](CCN)C(=O)N[C@H](C(=O)N[C@@H](CN)C(=O)N[C@H]2CCNC(=O)[C@H]([C@@H](C)O)NC(=O)[C@H](CCN)NC(=O)[C@H](CCN)NC(=O)[C@H]([C@H](C)O)NC(=O)[C@@H](CC(C)C)NC(=O)[C@H](CCN)NC2=O)[C@@H](C)O)NC(=O)[C@H](CCN)NC(=O)[C@H](Cc2ccc(O)cc2)NC1=O)C(C)C [Ex. 140] (I: Ac-VCY[Dab]E[dDab]SWS[Tle]CT-NH2 / II: [Dab]T[Dap][Dab][Dab][dL][aThr][Dab][Dab]T; disulfide I:2-I:11; amide I:5-II:N; lactam II:4-II:C) | 0.5 µg/mL (≈ 0.207 µM) | – | 0.25 µg/mL (≈ 0.104 µM) | 0.25 µg/mL (≈ 0.104 µM) | – | 0.5 µg/mL (≈ 0.207 µM) | – | – | <1% | 0.125 µg/mL (≈ 0.0518 µM) | 0.125 µg/mL (≈ 0.0518 µM) | 0.125 µg/mL (≈ 0.0518 µM) | 0.25 µg/mL (≈ 0.104 µM)
5 | CC(C)C[C@@H]1NC(=O)[C@@H](CC(C)C)NC(=O)[C@H](CCN)NC(=O)[C@@H](NC(=O)[C@H](CCN)NC(=O)[C@@H](NC(=O)[C@H](CCN)NC(=O)CC[C@@H]2NC(=O)[C@H](CCN)NC(=O)[C@H](Cc3ccc(O)cc3)NC(=O)[C@@H](NC(=O)[C@@H](O)C(C)C)CSSC[C@@H](C(=O)N[C@H](CO)[C@@H](C)O)NC(=O)[C@H](C(C)C)NC(=O)[C@H](CO)NC(=O)[C@H](Cc3c[nH]c4ccccc34)NC(=O)[C@H](CCO)NC(=O)[C@@H](CCN)NC2=O)[C@@H](C)O)CCNC(=O)[C@H]([C@@H](C)O)NC(=O)[C@H](CCN)NC(=O)[C@H](CCN)NC1=O [Ex. 78] (I: H-[Hiv]CY[Dab]E[dDab][hSer]WSVC[Thr(ol)] / II: [Dab]T[Dab][Dab][Dab][dL]L[Dab][Dab]T; disulfide I:2-I:11; amide I:5-II:N; lactam II:4-II:C) | 0.125 µg/mL (≈ 0.0524 µM) | – | 2 µg/mL (≈ 0.838 µM) | 0.125 µg/mL (≈ 0.0524 µM) | – | 0.0625 µg/mL (≈ 0.0262 µM) | – | – | <1% | 0.0625 µg/mL (≈ 0.0262 µM) | 0.03125 µg/mL (≈ 0.0131 µM) | 0.25 µg/mL (≈ 0.105 µM) | 0.125 µg/mL (≈ 0.0524 µM)
6 | CC(=O)N[C@@H](CCN)C(=O)N[C@@H](CC(C)C)C(=O)N[C@H]1CSSC[C@@H](C(=O)N[C@H](C(N)=O)C(C)C)NC(=O)[C@H](C(C)(C)C)NC(=O)[C@@H]2CSSC[C@H](NC(=O)[C@H](Cc3ccc(O)cc3)NC1=O)C(=O)N[C@@H](CCC(=O)N[C@@H](CCN)C(=O)N[C@H](C(=O)N[C@@H](CN)C(=O)N[C@H]1CCNC(=O)[C@H]([C@@H](C)O)NC(=O)[C@H](CCN)NC(=O)[C@H](CCN)NC(=O)[C@H](CC(C)C)NC(=O)[C@@H](CC(C)C)NC(=O)[C@H](CCN)NC1=O)[C@@H](C)O)C(=O)N[C@H](CCN)C(=O)N[C@@H](CCN)C(=O)N[C@@H](Cc1c[nH]c3ccccc13)C(=O)N2 [Ex. 234] (I: Ac-[Dab]LCYCE[dDab][Dab]WC[Tle]CV-NH2 / II: [Dab]T[Dap][Dab][Dab][dL]L[Dab][Dab]T; disulfide I:3-I:12, I:5-I:10; amide I:6-II:N; lactam II:4-II:C) | 0.25 µg/mL (≈ 0.0973 µM) | – | 0.5 µg/mL (≈ 0.195 µM) | 0.25 µg/mL (≈ 0.0973 µM) | – | 1 µg/mL (≈ 0.389 µM) | – | – | 9% | 0.25 µg/mL (≈ 0.0973 µM) | 0.125 µg/mL (≈ 0.0487 µM) | 0.25 µg/mL (≈ 0.0973 µM) | 0.5 µg/mL (≈ 0.195 µM)
7 | CC(C)C[C@@H]1NC(=O)[C@@H](CC(C)C)NC(=O)[C@H](CCN)NC(=O)[C@@H](NC(=O)[C@H](CN)NC(=O)[C@@H](NC(=O)[C@H](CCN)NC(=O)CC[C@@H]2NC(=O)[C@H](CN)NC(=O)[C@H](Cc3ccc(O)cc3)NC(=O)[C@@H](NC(=O)[C@@H](NC(=O)[C@@H]3CCC(=O)N3)C(C)C)CSSC[C@@H](C(=O)N[C@H](CO)[C@@H](C)O)NC(=O)[C@H](C(C)(C)C)NC(=O)[C@H](CO)NC(=O)[C@H](Cc3c[nH]c4ccccc34)NC(=O)[C@H]([C@@H](C)O)NC(=O)[C@@H](CCN)NC2=O)[C@@H](C)O)CCNC(=O)[C@H]([C@@H](C)O)NC(=O)[C@H](CCN)NC(=O)[C@H](CCN)NC1=O [Ex. 232] (I: [pGlu]VCY[Dap]E[dDab]TWS[Tle]C[Thr(ol)] / II: [Dab]T[Dap][Dab][Dab][dL]L[Dab][Dab]T; disulfide I:3-I:12; amide I:6-II:N; lactam II:4-II:C) | 0.0625 µg/mL (≈ 0.0252 µM) | – | 0.125 µg/mL (≈ 0.0503 µM) | 0.0625 µg/mL (≈ 0.0252 µM) | – | 0.125 µg/mL (≈ 0.0503 µM) | – | – | <1% | 0.0625 µg/mL (≈ 0.0252 µM) | 0.0625 µg/mL (≈ 0.0252 µM) | 0.125 µg/mL (≈ 0.0503 µM) | 0.125 µg/mL (≈ 0.0503 µM)
